Laboratory results taken from paper PMC7576608, “Mechanisms of telomerase inhibition by oxidized and therapeutic dNTPs” (Nature Communications, 2020).
“And” between values parts separate entries of the source, which are not always exact repeats. Equal values may be shown once. Read-outs that look alike come from different tables or passages of the source.

Key:
tcTERT [1] = biological target: T1, tcTERT (Tribolium castaneum, UniProt Q0QHL8); test: Pre-steady-state single-turnover kinetics of tcTERT single nucleotide insertion; assay type: biochemical; set-up: tcTERT kobs: unit not given here; conditions: for Fold change: catalytic efficiency relative to dGTP
T1 sequence (Q0QHL8 entry or part of it): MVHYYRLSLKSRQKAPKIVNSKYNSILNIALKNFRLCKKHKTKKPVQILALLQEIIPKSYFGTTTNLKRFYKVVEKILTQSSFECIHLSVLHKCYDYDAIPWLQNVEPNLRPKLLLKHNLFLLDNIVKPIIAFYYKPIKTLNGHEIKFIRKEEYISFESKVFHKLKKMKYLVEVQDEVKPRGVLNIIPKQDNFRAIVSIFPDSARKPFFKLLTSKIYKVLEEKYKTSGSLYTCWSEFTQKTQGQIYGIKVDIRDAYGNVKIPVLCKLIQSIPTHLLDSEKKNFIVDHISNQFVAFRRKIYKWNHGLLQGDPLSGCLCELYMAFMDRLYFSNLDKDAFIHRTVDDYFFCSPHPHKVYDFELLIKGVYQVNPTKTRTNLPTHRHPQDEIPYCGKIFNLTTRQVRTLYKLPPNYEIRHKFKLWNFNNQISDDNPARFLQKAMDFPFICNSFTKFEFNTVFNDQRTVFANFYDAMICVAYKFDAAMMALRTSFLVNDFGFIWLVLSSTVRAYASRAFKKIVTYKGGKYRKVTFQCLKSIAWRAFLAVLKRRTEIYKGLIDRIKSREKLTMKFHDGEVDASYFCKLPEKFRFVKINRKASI
From the text: In order to better understand the ability of modified dNTPs to compete with natural dNTPs for telomerase utilization, we added modified dNTPs to reactions containing all four natural dNTPs. […] The calculated IC50 determines the concentration required to reduce repeat processivity in the bulk reactions by half. However, it is important to note that bulk experiments cannot distinguish effects on individual telomeres, since extended telomeres mask unextended telomeres. Incorporation of a chain terminator during any step will terminate extension of the affected telomere, and just five critically short telomeres are sufficient to trigger senescence. Therefore, repeat processivity IC50 values are not necessarily an indicator of the inhibitory potency, but provide information on selectivity for modified dNTPs compared to natural dNTPs. […] The ability to purify sufficient quantities of tcTERT enables characterization of the catalytic nucleotide addition by pre-steady-state single turnover kinetics using a defined DNA–RNA primer–template substrate. The catalytic efficiency of incorporating a single dNTP is measured by dividing the observed nucleotide incorporation rate constant, kpol, by the equilibrium dissociation constant for dNTP binding to the tcTERT–primer–template complex (Kd)[44].
Pre-steady-state kinetic parameters of tcTERT were obtained using established pre-steady-state kinetics protocols for DNA polymerases, also known as single turnover kinetics[70],[71]. Briefly, we preincubated 2 μM tcTERT with 200 nM annealed DNA:RNA hybrid substrate, with a 6-FAM label on the 5′ end of the DNA component. We then used a KinTek RQF-3 (a rapid quench-flow instrument) to mix equal ratios of the incoming nucleotide triphosphate and 10 mM MgCl2 with the existing mix of tcTERT and its DNA:RNA hybrid substrate. Reactions were run at 37 °C and quenched at various timepoints with 100 mM EDTA pH 7.5. […] After each reaction, the samples were transferred to a DNA gel loading buffer, containing 100 mM EDTA, 80% deionized formamide, 0.25 mg ml^−1 bromophenol blue, and 0.25 mg ml^−1 xylene cyanol. These mixes were then incubated at 95 °C for 5 min, and loaded onto a 21% denaturing polyacrylamide gel. These gels were run at 700 V, […], and 30 W at 30 °C in order to separate the reaction product from its substrate.
Means and standard deviations from at least three independent replicates were calculated, and graphed using KaleidaGraph version 4.5.2. Plots of product formation over time were fit to the exponential equation (1) to determine kobs values:1 P=A(1−e^−kobst).
In which [P] is the concentration of the product, A is the target engagement (amplitude), and t is the reaction time. After kobs values were determined for multiple nucleotide triphosphate concentrations, the data was replot to compare kobs to concentration of nucleotide triphosphate, and fit to Eq. (2):2 kobs=kpol[NTP]/Kd+[NTP]. with kpol representing the theoretical maximum value of kobs, and [NTP] representing the concentration of the nucleotide of interest.

polymerase β = polymerase β (Homo sapiens, UniProt P06746); test: Polymerase β dGTP run-on assay; assay type: biochemical; conditions: 50 or 200 μM dGTP
Procedure: These mixes were then incubated at 95 °C for 5 min, and loaded onto a 21% denaturing polyacrylamide gel. These gels were run at 700 V, […], and 30 W at 30 °C in order to separate the reaction product from its substrate.
Supplementary Fig 4. Time course reactions with telomerase or pol β. (a, b) Telomerase reactions were conducted with 5 nM 32P-end labeled primer (a) Primer 4 (GTTAGG)3 or (b) Primer 2 (GGTTAG)3.
Products were separated on denaturing gels. Letters on the right indicate the template base; P indicates unextended 18-mer primer. Graphs represent the percent primer extended for the reactions in panels a and b from one experiment. ( c, d) Primer extension by human polymerase b. The double stranded 6- […]
reactions were run on denaturing gels and imaged using a Typhoon phosphoimager. P indicates unextended 13-mer primer from three independent experiments. Source data are provided as a Source […]

tcTERT [2] = biological target: T1, tcTERT; conditions: cited from earlier work
[3] = dNTP binding to tcTERT-primer-template complex

## Nc1nc2c(ncn2C2CC(O)C(COP(=O)(O)OP(=O)(O)OP(=O)(O)O)O2)c(=S)[nH]1 (stereo not shown) [6-thio-dGTP]
tcTERT [1]; [6-thio-dGTP] 0.5 uM, Mean
  tcTERT kobs: 0.024
tcTERT [1]; [6-thio-dGTP] 0.5 uM, single replicates
  tcTERT kobs: 0.020 and 0.017 and 0.037
tcTERT [1]; [6-thio-dGTP] 1 uM, Mean
  tcTERT kobs: 0.036
tcTERT [1]; [6-thio-dGTP] 1 uM, single replicates
  tcTERT kobs: 0.046 and 0.026 and 0.035
tcTERT [1]; [6-thio-dGTP] 3 uM, Mean
  tcTERT kobs: 0.084
tcTERT [1]; [6-thio-dGTP] 3 uM, single replicates
  tcTERT kobs: 0.093 and 0.083 and 0.076
tcTERT [1]; [6-thio-dGTP] 5 uM, Mean
  tcTERT kobs: 0.142
tcTERT [1]; [6-thio-dGTP] 5 uM, single replicates
  tcTERT kobs: 0.256 and 0.136 and 0.070 and 0.105
tcTERT [1]; [6-thio-dGTP] 7 uM, Mean
  tcTERT kobs: 0.143
tcTERT [1]; [6-thio-dGTP] 7 uM, single replicates
  tcTERT kobs: 0.232 and 0.073 and 0.125
tcTERT [1]; [6-thio-dGTP] 10 uM, Mean
  tcTERT kobs: 0.239
tcTERT [1]; [6-thio-dGTP] 10 uM, single replicates
  tcTERT kobs: 0.389 and 0.333 and 0.126 and 0.109
tcTERT [1]; [6-thio-dGTP] 15 uM, Mean
  tcTERT kobs: 0.330
tcTERT [1]; [6-thio-dGTP] 15 uM, single replicates
  tcTERT kobs: 0.523 and 0.151 and 0.314
tcTERT [1]; [6-thio-dGTP] 20 uM, Mean
  tcTERT kobs: 0.552
tcTERT [1]; [6-thio-dGTP] 20 uM, single replicates
  tcTERT kobs: 0.535 and 0.464 and 0.603 and 0.606
tcTERT [1]; [6-thio-dGTP] 25 uM, Mean
  tcTERT kobs: 0.632
tcTERT [1]; [6-thio-dGTP] 25 uM, single replicates
  tcTERT kobs: 0.411 and 0.737 and 0.749
tcTERT [1]; [6-thio-dGTP] 40 uM, Mean
  tcTERT kobs: 0.951
tcTERT [1]; [6-thio-dGTP] 40 uM, single replicates
  tcTERT kobs: 0.795 and 1.041 and 1.018
tcTERT [1]; [6-thio-dGTP] 50 uM, Mean
  tcTERT kobs: 1.139
tcTERT [1]; [6-thio-dGTP] 50 uM, single replicates
  tcTERT kobs: 1.051 and 1.270 and 1.096
tcTERT [1]; [6-thio-dGTP] 75 uM, Mean
  tcTERT kobs: 1.424
tcTERT [1]; [6-thio-dGTP] 75 uM, single replicates
  tcTERT kobs: 1.281 and 1.438 and 1.554
tcTERT [1]; [6-thio-dGTP] 100 uM, Mean
  tcTERT kobs: 1.760
tcTERT [1]; [6-thio-dGTP] 100 uM, single replicates
  tcTERT kobs: 1.806 and 1.680 and 1.793
tcTERT [1]; [6-thio-dGTP] 150 uM, Mean
  tcTERT kobs: 1.896
tcTERT [1]; [6-thio-dGTP] 150 uM, single replicates
  tcTERT kobs: 1.870 and 2.039 and 1.778
tcTERT [1]
  Fold change: 0.579
tcTERT [1]; [3]
  Kd: 92.4 ± 12.9 µM
tcTERT [1]; single nucleotide insertion, 37 °C
  kpol: 3.1 ± 0.23 s⁻¹

## Nc1nc2c(ncn2C2CC(O)C(COP(=O)(O)OP(=O)(O)OP(=O)(O)O)O2)c(=O)[nH]1 (stereo not shown) [dGTP]
Polymerase β
  Laddering or misincorporation by DNA polymerase β (in words): no evidence of dGTP laddering or misincorporation opposite template A
tcTERT [1]
  Fold higher catalytic efficiency of dGTP compared to 6-thio-dGTP: 2 fold
  Fold change: 1.000
tcTERT [2]; [3]
  Kd: 18.1 ± 3.78 µM
tcTERT [2]; single nucleotide insertion
  Catalytic efficiency (kpol/Kd): 58000 ± 12000 M⁻¹ s⁻¹
  kpol: 1.1 ± 0.03 s⁻¹
